Source: ChEMBL document CHEMBL4699646, “Eleutheroside E Enhances the Long-Term Memory of Radiation-Damaged C. elegans through G-Protein-Coupled Receptor and Neuropeptide Signaling Pathways” (J Nat Prod, 2020)
Calls of active or inactive are those of the source. The calls are words filed in the database; no cut-off is given here.

Key:
[1] = test system: Caenorhabditis elegans; test: Inhibition of neuropeptide pathway in radioactive-induced Caenorhabditis elegans N2 assessed as down regulation of nlp-1 mRNA expression preincubated for 24 hrs followed by gamma-radiation treatment and measured after 24 hrs qRT-PCR analysis; settings: time 48.0 hrs
[2] = test system: Caenorhabditis elegans; test: Inhibition of Gs-apha-coupled PKA pathway in radioactive-induced Caenorhabditis elegans N2 assessed as down regulation of gsa-1 mRNA expression preincubated for 24 hrs followed by gamma-radiation treatment and measured after 24 hrs qRT-PCR analysis; settings: time 48.0 hrs
[3] = test system: Caenorhabditis elegans; test: Inhibition of cGMP signaling pathway in radioactive-induced Caenorhabditis elegans N2 assessed as down regulation of daf-11 mRNA expression preincubated for 24 hrs followed by gamma-radiation treatment and measured after 24 hrs qRT-PCR analysis; settings: time 48.0 hrs
[4] = test system: Caenorhabditis elegans; test: Memory enhancement effect in Caenorhabditis elegans N2 assessed as increase in long-term memory index at 0.1 mg/ml preincubated for 24 hrs followed by gamma-radiation treatment and measured after 24 hrs; assay type: functional, organism-based; settings: time 48.0 hrs
[5] = test system: Caenorhabditis elegans; test: Activation of CREB in radioactive-induced Caenorhabditis elegans YT17 harboring crh-1(tz2) mutant assessed as increase in long-term memory preincubated for 24 hrs followed by gamma-radiation treatment and measured after 24 hrs; settings: time 48.0 hrs
[6] = test system: Caenorhabditis elegans; test: Memory enhancement effect in radioactive-induced Caenorhabditis elegans MT1434 harboring egl-30(n686) mutant assessed as memory index preincubated for 24 hrs followed by gamma-radiation treatment and measured after 24 hrs; assay type: functional, organism-based; settings: time 48.0 hrs
[7] = test system: Caenorhabditis elegans; test: Inhibition of cGMP signaling pathway in radioactive-induced Caenorhabditis elegans N2 assessed as down regulation of odr-1 mRNA expression preincubated for 24 hrs followed by gamma-radiation treatment and measured after 24 hrs qRT-PCR analysis; settings: time 48.0 hrs
[8] = test system: Caenorhabditis elegans; test: Memory enhancement effect in radioactive-induced Caenorhabditis elegans harboring RNAi podr-1::unc-31 mutant assessed as memory index preincubated for 24 hrs followed by gamma-radiation treatment and measured after 24 hrs; assay type: functional, organism-based; settings: time 48.0 hrs
[9] = test system: Caenorhabditis elegans; test: Memory enhancement effect in radioactive-induced Caenorhabditis elegans assessed as increase in cAMP level preincubated for 24 hrs followed by gamma-radiation treatment and measured after 24 hrs; assay type: functional, organism-based; settings: time 48.0 hrs
[10] = test system: Caenorhabditis elegans; test: Memory enhancement effect in radioactive-induced Caenorhabditis elegans harboring RNAi egl8;egl-30(n686)ls(Podr-1-mcherry::egl-30) mutant assessed as memory index preincubated for 24 hrs followed by gamma-radiation treatment and measured after 24 hrs; assay type: functional, organism-based; settings: time 48.0 hrs
[11] = test system: Caenorhabditis elegans; test: Inhibition of neuropeptide pathway in radioactive-induced Caenorhabditis elegans N2 assessed as down regulation of nlp-5 mRNA expression preincubated for 24 hrs followed by gamma-radiation treatment and measured after 24 hrs qRT-PCR analysis; settings: time 48.0 hrs
[12] = test system: Caenorhabditis elegans; test: Inhibition of neuropeptide pathway in radioactive-induced Caenorhabditis elegans N2 assessed as down regulation of nlp-23 mRNA expression preincubated for 24 hrs followed by gamma-radiation treatment and measured after 24 hrs qRT-PCR analysis; settings: time 48.0 hrs
[13] = test system: Caenorhabditis elegans; test: Inhibition of Gq-alpha-coupled PLC pathway in radioactive-induced Caenorhabditis elegans N2 assessed as up regulation of goa-1 mRNA expression preincubated for 24 hrs followed by gamma-radiation treatment and measured after 24 hrs qRT-PCR analysis; settings: time 48.0 hrs
[14] = test system: Caenorhabditis elegans; test: Inhibition of neuropeptide signaling pathway in radioactive-induced Caenorhabditis elegans N2 assessed as down regulation of npr-11 mRNA expression preincubated for 24 hrs followed by gamma-radiation treatment and measured after 24 hrs qRT-PCR analysis; settings: time 48.0 hrs
[15] = test system: Caenorhabditis elegans; test: Activation of CREB in radioactive-induced Caenorhabditis elegans MY36 harboring [crh-1(tz2); Pmbr-1-mcherry::crh-1(mtIs18)] mutant assessed as increase in long-term memory preincubated for 24 hrs followed by gamma-radiation treatment and measured after 24 hrs; settings: filed as activator, time 48.0 hrs
[16] = test system: Caenorhabditis elegans; test: Memory enhancement effect in radioactive-induced Caenorhabditis elegans RB1341 harboring […] mutant assessed as memory index preincubated for 24 hrs followed by gamma-radiation treatment and measured after 24 hrs; assay type: functional, organism-based; settings: time 48.0 hrs
[17] = test system: Caenorhabditis elegans; test: Inhibition of neuropeptide pathway in radioactive-induced Caenorhabditis elegans N2 assessed as down regulation of npr-2 mRNA expression preincubated for 24 hrs followed by gamma-radiation treatment and measured after 24 hrs qRT-PCR analysis; settings: time 48.0 hrs
[18] = test system: Caenorhabditis elegans; test: Protective activity against radioactive-induced Caenorhabditis elegans N2 assessed as body bends preincubated for 24 hrs followed by gamma-radiation treatment and measured after 24 hrs; assay type: functional, organism-based; settings: time 48.0 hrs
[19] = test system: Caenorhabditis elegans; test: Inhibition of cGMP signaling pathway in radioactive-induced Caenorhabditis elegans N2 assessed as down regulation of tax-4 mRNA expression preincubated for 24 hrs followed by gamma-radiation treatment and measured after 24 hrs qRT-PCR analysis; settings: time 48.0 hrs
[20] = test system: Caenorhabditis elegans; test: Protective activity against Butanone-induced Caenorhabditis elegans N2 assessed as chemotaxis index incubated for 1 hr; assay type: functional, organism-based
[21] = test system: Caenorhabditis elegans; test: Inhibition of Gs-apha-coupled PKA pathway in radioactive-induced Caenorhabditis elegans N2 assessed as down regulation of kin-2 mRNA expression preincubated for 24 hrs followed by gamma-radiation treatment and measured after 24 hrs qRT-PCR analysis; settings: time 48.0 hrs
[22] = test system: Caenorhabditis elegans; test: Inhibition of Gq-alpha-coupled PLC pathway in radioactive-induced Caenorhabditis elegans N2 assessed as down regulation of egl-30 mRNA expression preincubated for 24 hrs followed by gamma-radiation treatment and measured after 24 hrs qRT-PCR analysis; settings: time 48.0 hrs
[23] = test system: Caenorhabditis elegans; test: Inhibition of Gq-alpha-coupled PLC pathway in radioactive-induced Caenorhabditis elegans N2 assessed as down regulation of egl-8 mRNA expression preincubated for 24 hrs followed by gamma-radiation treatment and measured after 24 hrs qRT-PCR analysis; settings: time 48.0 hrs
[24] = test system: Caenorhabditis elegans; test: Protective activity against radioactive-induced Caenorhabditis elegans N2 assessed as head thrashes preincubated for 24 hrs followed by gamma-radiation treatment and measured after 24 hrs; assay type: functional, organism-based; settings: time 48.0 hrs
[25] = test system: Caenorhabditis elegans; test: Activation of CREB in radioactive-induced Caenorhabditis elegans YT17 harboring crh-1(tz2) mutant assessed as reduction radiation-induced damage preincubated for 24 hrs followed by gamma-radiation treatment and measured after 24 hrs; settings: time 48.0 hrs
[26] = test system: Caenorhabditis elegans; test: Inhibition of cGMP signaling pathway in radioactive-induced Caenorhabditis elegans N2 assessed as down regulation of tax-2 mRNA expression preincubated for 24 hrs followed by gamma-radiation treatment and measured after 24 hrs qRT-PCR analysis; settings: time 48.0 hrs
[27] = test system: Caenorhabditis elegans; test: Memory enhancement effect in radioactive-induced Caenorhabditis elegans MY66 harboring egl-30(n686);Podr-1-mcherry::egl-30(mtIs35)] mutant assessed as memory index preincubated for 24 hrs followed by gamma-radiation treatment and measured after 24 hrs; assay type: functional, organism-based; settings: time 48.0 hrs
[28] = test system: Caenorhabditis elegans; test: Protective activity against radioactive-induced Caenorhabditis elegans N2 at 0.05 to 0.2 mg/ml preincubated for 24 hrs followed by gamma-radiation treatment and measured after 24 hrs; assay type: functional, organism-based; settings: dose mg/ml 0.05-0.2, time 48.0 hrs

In the case of `COc1cc([C@H]2OC[C@@H]3[C@@H]2CO[C@H]3c2cc(OC)c(O[C@@H]3O[C@H](CO)[C@@H](O)[C@H](O)[C@H]3O)c(OC)c2)cc(OC)c1O[C@@H]1O[C@H](CO)[C@@H](O)[C@H](O)[C@H]1O`, the inhibition [1] is reported as “Active”, the inhibition [2] is reported as “Active” and the inhibition [3] is reported as “inactive”. The Activity [4] was “Active”, the Activity [5] was “inactive” and the Activity [6] was “inactive”. The inhibition [7] was “inactive”, the Activity [8] was “inactive” and the Activity [9] was “Active”. The Activity [10] was “inactive”, the inhibition [11] was “Active” and the inhibition [12] was “Active”. For the same compound, the inhibition [13] was “Active”, the inhibition [14] was “Active” and the Activity [15] was “Active”. For the same compound, the Activity [16] was “Active”, the inhibition [17] was “Active” and the Activity [18] was “inactive”. The inhibition [19] was “inactive”, the Activity [20] was “inactive” and the inhibition [21] was “Active”. The inhibition [22] was “Active”, the inhibition [23] was “Active” and the Activity [24] was “inactive”. For the same compound, the Activity [25] was “inactive”, the inhibition [26] was “inactive” and the Activity [27] was “Active”. The Activity [28] was “inactive”.
